Reference: article PMC11680018, “Study of Cytotoxicity of Spiro-Fused [3-Azabicyclo[3.1.0]hexane]oxindoles and Cyclopropa[a]pyrrolizidine-oxindoles Against Tumor Cell Lines” (Pharmaceuticals, 2024)
“And” between values parts separate entries of the source, which are not always exact repeats. Equal entries are not always repeated. Where two headings read alike, the source gives them in different places.

Legend:
[1] = tested on: human erythroleukemia (K562) cell line; test: MTS cell proliferation assay, K562; type: cell-based; conditions: for IC50: Homo sapiens, MTS; for SI (selectivity index) K562: ratio of cytotoxicity PBMC / K562, calculated at 72 h
Method: (§1) Cancer cell lines are valuable in vitro model systems that are widely used in cancer research and drug discovery. Their use is mainly linked to their possibility to provide for experimental purposes an unlimited source of biological material. Here, the 24 and 72 h in vitro MTS assay was used to determine the antiproliferative activity of synthesized spiro-fused cyclopropa[a]pyrrolizidine-2,3′-oxindoles and [3-azabicyclo[3.1.0]hexane]-oxindoles against human erythroleukemia (K562), acute T cell leukemia (Jurkat), cervical carcinoma (HeLa), melanoma (Sk-mel-2), breast cancer adenocarcinoma (MCF-7) as well as mouse colon carcinoma (CT26) cell lines. […] The full results of these investigations are presented in the Supporting Information Figures S1–S6. […] An evaluation of the cytotoxicity of the selected compounds towards normal cells (peripheral blood mononuclear cells) was performed additionally to understand their respective relative selectivities. The selectivity index was obtained using the ratio of measured cytotoxicity between the PBMC cells and each of the cancer cell lines, and the results are presented in Table 3.
(§2) The human erythroleukemia (K-562), cervical carcinoma (HeLa) as well as mouse colon carcinoma (CT26) cell lines were obtained from the Bank of Cell Cultures of the Institute of Cytology of the Russian Academy of Sciences; the human melanoma (Sk-mel-2) cell line was obtained from the Bank of Cell Cultures of the Institute of Cytology and Genetics, Siberian Branch of the Russian Academy of Sciences. The acute T cell leukemia (Jurkat) cell line was obtained from the Bank of Cell Cultures of the Institute of Immunology of the Russian Academy of Medical Sciences. The peripheral blood mononuclear cells (PBMC) were isolated from the blood of healthy donors. K-562, Jurkat, MCF-7, PBMC and CT26 cells were grown on RPMI medium (Hyclone, GE Healthcare Life Sciences, Logan, UT, USA) supplemented with 10% (v/v) fetal bovine serum (Hyclone, GE Healthcare Life Sciences, Logan, UT, USA) and gentamicin (Sigma-Aldrich, St. Louis, MO, USA) at 37 °C in a humidified atmosphere with 5% CO2. HeLa and Sk-mel-2 cells were cultured with the same supplements and conditions in DMEM medium (Hyclone, GE Healthcare Life Sciences, Logan, UT, USA).
(§3) To evaluate the in vitro toxicity of the compounds synthesized, cells were seeded into 96-well plates at a density of 5 × 10^3 cells per well. On the next day, the tested compounds were added to the wells at concentrations ranging from 1 to 30 μg/mL, followed by incubation for 1 and 3 days. Cell proliferation was determined by adding 20 μL of MTS reagent (BioVision, Milpitas, CA, USA) stock solution per well. The plates were incubated for 2 h at 37 °C in a humidified, 5% CO2 atmosphere. The plates were then read at 495 nm using a plate spectrophotometer (Multiskan GO, Thermo Fisher Scientific, Waltham, MA, USA). All samples were measured in triplicate.

[2] = tested on: cervical carcinoma (HeLa) cell line; test: MTS cell proliferation assay, HeLa; type: cell-based, human; conditions: for IC50: Homo sapiens, HeLa, MTS; for SI (selectivity index) HeLa: ratio of cytotoxicity PBMC / HeLa, calculated at 72 h
Method: as §1, §2, §3

[3] = tested on: acute T cell leukemia (Jurkat) cell line; test: MTS cell proliferation assay, Jurkat; type: cell-based, human; conditions: for IC50: Homo sapiens, Jurkat, MTS; for SI (selectivity index) Jurkat: ratio of cytotoxicity PBMC / Jurkat, calculated at 72 h
Method: as §1, §2, §3

[4] = tested on: breast cancer adenocarcinoma (MCF-7) cell line; test: MTS cell proliferation assay, MCF-7; type: cell-based, human; conditions: for IC50: Homo sapiens, MTS; for SI (selectivity index) MCF-7: ratio of cytotoxicity PBMC / MCF-7, calculated at 72 h
Method: as §1, §2, §3

[5] = tested on: melanoma (Sk-mel-2) cell line; test: MTS cell proliferation assay, Sk-mel-2; type: cell-based, human; conditions: for IC50: Homo sapiens, MTS; for SI (selectivity index) Sk-mel-2: ratio of cytotoxicity PBMC / Sk-mel-2, calculated at 72 h
Method: as §1, §2, §3

[6] = tested on: mouse colon carcinoma (CT26) cell line; test: MTS cell proliferation assay, CT26; type: cell-based; conditions: for IC50: Mus musculus, MTS; for SI (selectivity index) CT26: ratio of cytotoxicity PBMC / CT26, calculated at 72 h
Method: as §1, §2, §3

[7] = tested on: peripheral blood mononuclear cells (PBMC); test: MTS cytotoxicity towards normal cells, PBMC; type: cell-based; conditions: Homo sapiens
Method: as §1, §2, §3

[8] = tested on: HeLa cells actin cytoskeleton; test: Actin cytoskeleton staining, confocal microscopy, HeLa; type: cell-based, human; conditions: 10 μg/mL, 24 h; for HeLa cells with filopodia-like deformations: control cells 93%, lowest value over the compounds; for HeLa cells with granular actin distributed diffusely in the cytoplasm (stress fibers disappeared): maximum over the compounds
Method: It was found using confocal microscopy that incubation with spiro-fused [3-azabicyclo[3.1.0]hexane]oxindoles 4, 8, 17, 18, 22, 24 and cyclopropa[a]pyrrolizidine-2,3′-oxindole 2 led to significant changes in the HeLa cells’ actin cytoskeleton structure leading to the disappearance of stress fibers (granular actin was distributed diffusely in the cytoplasm in up to 38% of treated cells) and changes in the number of filopodia-like deformations (reduced from 93% in control cells to 64% after treatment). The impact on the Sk-mel-2 cells’ actin cytoskeleton structure was even greater: granular actin was distributed diffusely in the cytoplasm in up to 90% of treated cells while the number of filopodia-like deformations was reduced by up to 23%. Such changes in the cytoskeleton may indicate a change in the motor activity of cells, which may indicate a decrease in the ability of tumor cells to metastasize.
HeLa cells were seeded at a density of 2 × 10^5 cells per dish onto a petri dish with cover slips and incubated for 24 h. After that, cells were treated with chosen compounds (10 μg/mL) for 24 h. The medium was removed and cells were fixed with 4% paraformaldehyde (Sigma-Aldrich, St. Louis, MO, USA), washed three times with PBS, and permeabilized with 0.3% Triton-X100 (Sigma-Aldrich, St. Louis, MO, USA). The cells were rinsed three times with PBS. Actin filaments (microfilaments) were stained with rhodamine–phalloidin (Invitrogen, Carlsbad, CA, USA) at 37 °C for 15 min. The samples were rinsed three times with PBS, followed by embedding in Fluoroshield medium (Sigma-Aldrich, St. Louis, MO, USA). Cells were imaged using an Axio Observer Z1 confocal microscope (Carl Zeiss MicroImaging GmbH, Jena, Germany). In each experiment, at least 30 cells were imaged. Images were analyzed by a pathologist blinded to the treatment mode used for each group using ImageJ software, 1.52v.

[9] = tested on: K562, Jurkat, HeLa, Sk-mel-2, MCF-7 and CT26 cell lines; test: MTS cell proliferation assay, panel of cell lines (summary statements); type: cell-based
Method: as §1, §2, §3

[10] = read-out: IC50 K562 24 h, K562, 24 h
[11] = K562, 72 h, read-out: IC50 K562 72 h
[12] = read-out: IC50 Jurkat 24 h, 24 h
[13] = 72 h, read-out: IC50 Jurkat 72 h
[14] = MCF7, read-out: IC50 MCF-7 24 h, MCF-7, 24 h
[15] = MCF7, MCF-7, 72 h, read-out: IC50 MCF-7 72 h
[16] = read-out: IC50 Sk-mel-2 24 h, Sk-mel-2, 24 h
[17] = Sk-mel-2, 72 h, read-out: IC50 Sk-mel-2 72 h
[18] = read-out: IC50 CT26 24 h, CT26, 24 h
[19] = CT26, 72 h, read-out: IC50 CT26 72 h
[20] = 72 h, range over four cell lines and compounds, read-out: IC50 against the Jurkat, K-562, HeLa and Sk-mel-2 cell lines

Row | Compound | IC50 [1, 10] | IC50 [1, 11] | IC50 ([2]; read-out: IC50 HeLa 24 h, 24 h) | IC50 ([2]; 72 h, read-out: IC50 HeLa 72 h) | IC50 [3, 12] | IC50 [3, 13] | IC50 [4, 14] | IC50 [4, 15] | IC50 [5, 16] | IC50 [5, 17] | IC50 [6, 18] | IC50 [6, 19] | SI (selectivity index) K562 [1] | SI (selectivity index) HeLa [2] | SI (selectivity index) Jurkat [3] | SI (selectivity index) MCF-7 [4] | SI (selectivity index) Sk-mel-2 [5] | SI (selectivity index) CT26 [6] | IC50 ([7]; 72 h, read-out: IC50 PBMC 72 h) | IC50 ([7]; read-out: IC50 PBMC 24 h, 24 h) | further results
1 | O=C1Nc2ccc([N+](=O)[O-])cc2C12N1CCCC1C1(c3ccccc3)C(c3ccccc3)C12c1ccccc1 (centres unmarked) [Compound 2] | 29 ± 2 µM | 8 ± 1 µM | > 40 µM | 12 ± 1 µM | 18 ± 2 µM | 4 ± 1 µM | > 40 µM | > 40 µM | 14 ± 1 µM | 12 ± 1 µM | > 40 µM | 23 ± 2 µM | 11 | 7 | 22 | 2 | 7 | 4 | 84 ± 8 µM | 121 ± 8 µM | HeLa cells with filopodia-like deformations [8]: ≥ 64%; HeLa cells with granular actin distributed diffusely in the cytoplasm (stress fibers disappeared) [8]: up to 38%; IC50 ([9]; range over cell lines, except for the breast cancer cell line, read-out: IC50 over the tested cell lines): 2 µg/mL to 12 µg/mL and 4 µM to 23 µM
2 | CC[C@H](C)C1NC2(C(=O)Nc3ccccc32)C2(c3ccccc3)C(C(=O)OC)C12c1ccccc1 (some centres unmarked) [Compound 4] | 32 ± 2 µM | 6 ± 1 µM | > 40 µM | 9 ± 1 µM | 11 ± 1 µM | 4 ± 1 µM | > 40 µM | > 40 µM | > 40 µM | 9 ± 1 µM | > 40 µM | 21 ± 2 µM | 14 | 11 | 22 | 2 | 11 | 4 | 92 ± 9 µM | 174 ± 17 µM | HeLa cells with filopodia-like deformations [8]: ≥ 64%; HeLa cells with granular actin distributed diffusely in the cytoplasm (stress fibers disappeared) [8]: up to 38%; IC50 [9, 20]: 2 to 10 µM
3 | CC(C)C1NC2(C(=O)Nc3ccccc32)C2(c3ccccc3)C(c3ccccc3)C12c1ccccc1 (centres unmarked) [Compound 8] | 25 ± 1 µM | 6 ± 1 µM | > 40 µM | 8 ± 1 µM | 11 ± 1 µM | 2 ± 1 µM | > 40 µM | > 40 µM | 15 ± 1 µM | 8 ± 1 µM | > 40 µM | 11 ± 1 µM | 7 | 6 | 22 | 1 | 6 | 4 | 47 ± 5 µM | 83 ± 7 µM | HeLa cells with filopodia-like deformations [8]: ≥ 64%; HeLa cells with granular actin distributed diffusely in the cytoplasm (stress fibers disappeared) [8]: up to 38%; IC50 [9, 20]: 2 to 10 µM
4 | COC(=O)C1C2(c3ccccc3)C(Cc3ccc(O)cc3)NC3(C(=O)Nc4ccccc43)C12c1ccccc1 (centres unmarked) [Compound 17] | 35 ± 5 µM | 14 ± 1 µM | 31 ± 2 µM | 14 ± 2 µM | 12 ± 1 µM | 8 ± 1 µM | > 40 µM | > 40 µM | > 40 µM | 14 ± 2 µM | > 40 µM | 23 ± 2 µM | 8 | 8 | 15 | 2 | 8 | 5 | 112 ± 9 µM | 127 ± 16 µM | HeLa cells with filopodia-like deformations [8]: ≥ 64%; HeLa cells with granular actin distributed diffusely in the cytoplasm (stress fibers disappeared) [8]: up to 38%

More lines, main results first:

Row | IC50 [1, 10] | IC50 [1, 11] | IC50 ([2]; read-out: IC50 HeLa 24 h, 24 h) | IC50 ([2]; 72 h, read-out: IC50 HeLa 72 h) | IC50 [3, 12] | IC50 [3, 13] | IC50 [4, 14] | IC50 [4, 15] | IC50 [5, 16] | IC50 [5, 17] | IC50 [6, 18] | IC50 [6, 19] | Compound | SI (selectivity index) K562 [1] | SI (selectivity index) HeLa [2] | SI (selectivity index) Jurkat [3] | SI (selectivity index) MCF-7 [4] | SI (selectivity index) Sk-mel-2 [5] | SI (selectivity index) CT26 [6] | IC50 ([7]; 72 h, read-out: IC50 PBMC 72 h) | IC50 ([7]; read-out: IC50 PBMC 24 h, 24 h) | further results
5 | 14 ± 2 µM | 6 ± 1 µM | 23 ± 2 µM | 10 ± 2 µM | 6 ± 1 µM | 2 ± 1 µM | > 40 µM | 14 ± 1 µM | 29 ± 2 µM | 10 ± 1 µM | 27 ± 2 µM | 10 ± 1 µM | NC(=O)CC1NC2(C(=O)Nc3ccccc32)C2(c3ccccc3)C(c3ccccc3)C12c1ccccc1 (centres unmarked) [Compound 18] | 2 | 1 | 6 | 1 | 1 | 1 | 12 ± 1 µM | 29 ± 3 µM | HeLa cells with filopodia-like deformations [8]: ≥ 64%; HeLa cells with granular actin distributed diffusely in the cytoplasm (stress fibers disappeared) [8]: up to 38%; IC50 [9, 20]: 2 to 10 µM
6 | > 40 µM | 10 ± 1 µM | 20 ± 2 µM | 8 ± 1 µM | 22 ± 2 µM | 4 ± 1 µM | > 40 µM | > 40 µM | > 40 µM | 8 ± 1 µM | > 40 µM | > 40 µM | CSCCC1NC2(C(=O)Nc3ccccc32)C2(c3ccccc3)C(c3ccccc3)C12c1ccccc1 (centres unmarked) [Compound 24] | 9 | 12 | 23 | 1 | 12 | 1 | 92 ± 11 µM | 113 ± 14 µM | HeLa cells with filopodia-like deformations [8]: ≥ 64%; HeLa cells with granular actin distributed diffusely in the cytoplasm (stress fibers disappeared) [8]: up to 38%; IC50 [9, 20]: 2 to 10 µM
